Measured values reported in patent publication US8431593B2, “Heteroaryl amide derivatives” (H. Lundbeck A/S, priority 2006, dated 2013).

The molecules below were run against T1, P2X7 receptor (Homo sapiens, UniProt Q99572) (assay: P2X7 calcium mobilization assay, high throughput, antagonist activity (Example 4A)). Details: not given.
T1 construct: host or cells: SH-SY5Y
T1 sequence (Q99572 1-595): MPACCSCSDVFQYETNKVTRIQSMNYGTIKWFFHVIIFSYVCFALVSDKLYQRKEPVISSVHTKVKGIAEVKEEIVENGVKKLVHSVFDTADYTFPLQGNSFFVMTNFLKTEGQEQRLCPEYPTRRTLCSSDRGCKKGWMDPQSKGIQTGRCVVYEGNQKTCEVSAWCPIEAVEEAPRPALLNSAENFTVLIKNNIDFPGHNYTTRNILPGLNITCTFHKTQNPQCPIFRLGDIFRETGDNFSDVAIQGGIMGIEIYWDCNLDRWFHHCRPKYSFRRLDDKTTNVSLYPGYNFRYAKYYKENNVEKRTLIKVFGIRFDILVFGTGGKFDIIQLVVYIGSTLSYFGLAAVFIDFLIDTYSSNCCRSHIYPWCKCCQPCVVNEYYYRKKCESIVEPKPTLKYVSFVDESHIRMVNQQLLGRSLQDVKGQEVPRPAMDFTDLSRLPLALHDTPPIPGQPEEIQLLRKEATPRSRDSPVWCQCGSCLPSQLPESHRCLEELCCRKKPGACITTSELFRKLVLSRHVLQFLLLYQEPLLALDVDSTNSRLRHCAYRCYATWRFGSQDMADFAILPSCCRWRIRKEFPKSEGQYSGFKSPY
Format: cell-based
Outline: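 Antagonism was measured as calcium mobilization on FLIPR^TETRA after a 1 h room-temperature compound preincubation of dye-loaded cells. Baseline from no-agonist wells was subtracted from each well's maximum RFU.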

Row | SMILES | IC50
1 | CN(C)CCOCc1cn2c(C(=O)NCC34CC5CC(CC(C5)C3)C4)cccc2n1 [Compound 127, N-(adamantan-1-ylmethyl)-2-{[2-(dimethylamino)eth-oxy]methyl}imi-dazo[1,2-a]pyridine-5-carboxamide] | < 2000 nM

Same assay, conditions: 50% decrease in the fluorescence response of cells exposed to 80 μM 2′(3′)-O-(4-benzoyl-benzoyl)adenosine 5′-triphosphate; Example 4A; read-out: IC50

Row | IC50 | SMILES
2 | < 2000 nM | CN(C)CCN(C(=O)c1cn2c(C(=O)NCC34CC5CC(CC(C5)C3)C4)cccc2n1)C1CCNCC1 [Compound 617, 5-N-(adamantan-1-ylmethyl)-2-N-[2-(dimethylamino)ethyl]-2-N-piperidin-4-ylimidazo[1,2-a]pyridine-2,5-dicarboxamide]
3 | < 2000 nM | CNC1CCN(C(=O)Cc2cn3c(C(=O)NC[C@@H]4CC[C@@H]5C[C@H]4C5(C)C)cccc3n2)C1 (stereo partly drawn) [Compound 568, N-{[(1R,2R,5R)-6,6-dimethylbicyclo[3.1.1]hept-2-yl]methyl}-2-{2-[3-(methylamino)pyrrolidin-1-yl]-2-oxoethyl}imidazo[1,2-a]pyridine-5-carboxamide]

More lines, now with the values behind:

Row | SMILES | IC50
4 | CCCN(C)C(=O)c1cn2c(C(=O)NC[C@@H]3CC[C@H]4C[C@@H]3C4(C)C)cccc2n1 [Compound 460, 5-N-{[(1S,2R,5S)-6,6-dimethylbicyclo[3.1.1]hept-2-yl]methyl}-2-N-methyl-2-N-propylimidazo[1,2-a]pyridine-2,5-dicarboxamide] | < 2000 nM
5 | CCOC(=O)CN(C)C(=O)c1cn2c(C(=O)NC[C@@H]3CC[C@H]4C[C@@H]3C4(C)C)cccc2n1 [Compound 482, ethyl N-{[5-({[(1S,2R,5S)-6,6-dimethylbicyclo[3.1.1]hept-2-yl]methyl}carbamoyl)imidazo[1,2-a]pyridin-2-yl]carbonyl}-N-methylglycinate] | < 2000 nM

Same assay, conditions: 50% decrease in the fluorescence response of cells exposed to 80 μM of 2′(3′)-O-(4-benzoyl-benzoyl)adenosine 5′-triphosphate; Example 4A; read-out: IC50

Row | IC50 | SMILES
6 | < 2000 nM | CCc1ccc(CN(C)C(=O)c2cn3c(C(=O)NCC45CC6CC(CC(C6)C4)C5)cccc3n2)cn1 [Compound 712, 5-N-(adamantan-1-ylmethyl)-2-N-[(6-ethylpyridin-3-yl)methyl]-2-N-methylimidazo[1,2-a]pyridine-2,5-dicarboxamide]
7 | < 2000 nM | CN1CCCC(CNC(=O)c2cn3c(C(=O)NCC45CC6CC(CC(C6)C4)C5)cccc3n2)C1 (stereo not shown) [Compound 668, 5-N-(adamantan-1-ylmethyl)-2-N-[(1-methylpiperidin-3-yl)methyl]imidazo[1,2-a]pyridine-2,5-dicarboxamide]
8 | < 2000 nM | O=C(NCC12CC3CC(CC(C3)C1)C2)c1cccc2nc(C(=O)N3CC[C@@H](NCCO)C3)cn12 [Compound 747, N-(adamantan-1-ylmethyl)-2-({3-[(2-hydroxyethyl)amino]pyrrolidin-1-yl}carbonyl)imidazo[1,2-a]pyridine-5-carboxamide]
9 | < 2000 nM | CC(c1cn2c(C(=O)NCC34CC5CC(CC(C5)C3)C4)cccc2n1)c1nnn[nH]1 (stereo not shown) [Compound 770, N-(adamantan-1-ylmethyl)-2-[1-(1H-tetrazol-5-yl)ethyl]imidazo [1,2-a]pyridine-5-carboxamide]
10 | < 2000 nM | CCOC(=O)C(CC(=O)N(C)C)c1cn2c(C(=O)NCC34CC5CC(CC(C5)C3)C4)cccc2n1 (stereo not shown) [Compound 809, ethyl 2-{5-[(adamantan-1-ylmethyl)carbamoyl]imidazo[1,2-a]pyridin-2-yl}-4-(dimethylamino)-4-oxobutanoate]
11 | < 2000 nM | NC1CCCN(C(=O)c2cn3c(C(=O)NCC45CC6CC(CC(C6)C4)C5)cccc3n2)C1 (stereo not shown) [Compound 627, N-(adamantan-1-ylmethyl)-2-[(3-aminopiperidin-1-yl)carbonyl]imidazo[1,2-a]pyridine-5-carboxamide]

Continued, molecule first:

Row | SMILES | IC50
12 | N[C@@H]1CCN(Cc2cn3c(C(=O)NCC4(c5cccnc5)CCCCC4)cccc3n2)C1 [Compound 769, 2-[(3-aminopyrrolidin-1-yl)methyl]-N-[(1-pyridin-3-ylcyclohexyl)methyl] imidazo[1,2-a] pyridine-5-carboxamide] | < 2000 nM
13 | CC(C)CC(CNC(=O)c1cccc2nc(Cn3ccccc3=O)cn12)c1cccnc1 (stereo not shown) [Compound 729, N-(4-methyl-2-pyridin-3-ylpentyl)-2-[(2-oxopyridin-1(2H)-yl)methyl] imidazo[1,2-a]pyridine-5-carboxamide] | < 2000 nM

Same assay, conditions: 50% decrease in the fluorescence response of cells exposed to 80 μM of 2′(3′)-O-(4-benzoyl-benzoyl)adenosine 5′-triphosphate; determined as in Example 4A; read-out: IC50

Row | IC50 | SMILES
14 | < 2000 nM | CCCC(C(=O)OCC)c1cn2c(C(=O)NCC34CC5CC(CC(C5)C3)C4)cccc2n1 (stereo not shown) [Compound 905, ethyl 2-{5-[(adamantan-1-ylmethyl)carbamoyl]imidazo[1,2-a]pyridin-2-yl}pentanoate]
15 | < 2000 nM | O=C(Cc1cn2c(C(=O)NCC34CC5CC(CC(C5)C3)C4)cccc2n1)N[C@@H]1CCNC1 [Compound 837, N-(adamantan-1-ylmethyl)-2-{2-oxo-2-[(3R)-pyrrolidin-3-ylamino]ethyl} imidazo [1,2-a]pyridine-5-carboxamide]

Second part, the molecule before the results:

Row | SMILES | IC50
16 | N[C@@H]1CCCN(C(=O)Cc2cn3c(C(=O)NCC4(c5cccnc5)CCCCC4)cccc3n2)C1 [Compound 947, 2-{2-[(3R)-3-aminopiperidin-1-yl]-2-oxoethyl}-N-[(1-pyridin-3-ylcyclohexyl)methyl] imidazo[1,2-a] pyridine-5-carboxamide] | < 2000 nM
17 | CC(C)CC(CNC(=O)c1cccc2nc(CC(Cc3ccccc3)C(=O)O)cn12)c1ccccc1 (stereo not shown) [Compound 1004, 2-benzyl-3-{5-[(4-methyl-2-phenylpentyl)carbamoyl]imidazo[1,2-a]pyridin-2-yl} propanoic acid] | < 2000 nM
18 | O=C(O)Cc1cn2c(C(=O)NCC3(c4ccc(Cl)cc4)CCCCC3)cccc2n1 [Compound 949, [5-({[1-(4-chlorophenyl)cyclohexyl]methyl}carbamoyl)imidazo[1,2-a]pyridin-2-yl]acetic acid] | < 2000 nM

Same assay, conditions: P2X7 calcium mobilization, Example 4A; 50% decrease in the fluorescence response of cells exposed to 80 μM of (2′(3′)-O-(4-benzoyl-benzoyl)adenosine 5′-triphosephate); read-out: IC50

Row | IC50 | SMILES
19 | < 2000 nM | CC(C)CC(CNC(=O)c1cccc2nc(CN3CC[C@@H](N(C)C)C3)cn12)c1ccc(Cl)cc1 (stereo partly drawn) [Compound 1039, N-[2-(4-chlorophenyl)-4-methylpentyl]-2-{[(3R)-3-(dimethylamino)pyrrolidin-1-yl]methyl} imidazo[1,2-a]pyridine-5-carboxamide]
20 | < 2000 nM | CC(=O)c1cn2c(C(=O)NCC(CC(C)C)c3ccc(Cl)cc3)cccc2n1 (stereo not shown) [Compound 1032, 2-acetyl-N-[2-(4-chlorophenyl)-4-methylpentyl] imidazo[1,2-a] pyridine-5-carboxamlde]
21 | < 2000 nM | CN1CCCC(NC(=O)Cc2cn3c(C(=O)NCC45CC6CC(CC(C6)C4)C5)cccc3n2)C1 (stereo not shown) [Compound 1050, N-(adamantan-1-ylmethyl)-2-{2-[(1-methylpiperidin-3-yl)amino]-2-oxoethyl} imidazo[1,2-a]pyridine-5-carboxamide]

Same assay, conditions: SH-SY5Y cells; 50% decrease in fluorescence response to 80 μM BzATP; read-out: IC50

Row | IC50 | SMILES
22 | < 2000 nM | CCOC(=O)c1cn2c(NC(=O)CC34CC5CC(CC(C5)C3)C4)cccc2n1 [Compound 143, ethyl 5-[(adamantan-1-ylacetyl)amino]imidazo[1,2-a]pyridine-2-carboxylate]
23 | < 2000 nM | NC1CCCN(Cc2cn3c(C(=O)NCC45CC6CC(CC(C6)C4)C5)cccc3n2)C1 (stereo not shown) [Compound 121, N-(adamantan-1-ylmethyl)-2-[(3-aminopiperidin-1-yl)methyl]imidazo[1,2-a]pyridine-5-carboxamide]
24 | < 2000 nM | CC(C)(C)CNC(=O)Cc1cn2c(C(=O)NCC34CC5CC(CC(C5)C3)C4)cccc2n1 [Compound 154, N-(adamantan-1-ylmethyl)-2-{2-[(2,2-dimethylpropyl)amino]-2-oxoethyl}imidazo[1,2-a]pyridine-5-carboxamide]

Same assay, conditions: fluorescence response of cells exposed to 80 μM 2′(3′)-O-(4-benzoyl-benzoyl)adenosine 5′-triphosphate; Example 4A; read-out: IC50

Row | IC50 | SMILES
25 | < 2000 nM | O=C(NCCC1CC2CCC1C2)c1cccc2nc(CN3CCOCC3)cn12 (stereo not shown) [Compound 344, N-(2-bicyclo[2.2.1]hept-2-ylethyl)-2-(morpholin-4-ylmethyl)imidazo[1,2-a]pyridine-5-carboxamide]
26 | < 2000 nM | CS(=O)(=O)NC1CCN(C(=O)c2cn3c(NC(=O)CC45CC6CC(CC(C6)C4)C5)cccc3n2)CC1 [Compound 398, 2-adamantan-1-yl-N-[2-({4-[(methylsulfonyl)amino]piperidin-1-yl}carbonyl)imidazo [1,2-a]pyridin-5-yl]acetamide]
27 | < 2000 nM | CC(C)CC(CNC(=O)c1cccc2nc(CC(=O)N3CCCC(C)(C)C3)cn12)c1ccccc1 (stereo not shown) [Compound 244, 2-[2-(3,3-dimethylpiperidin-1-yl)-2-oxoethyl]-N-(4-methyl-2-phenylpentyl)imidazo [1,2-a]pyridine-5-carboxamide]
28 | < 2000 nM | CCCN(C)C(=O)c1cn2c(NC(=O)CC34CC5CC(CC(C5)C3)C4)cccc2n1 [Compound 361, 5-[(adamantan-1-ylacetyl)amino]-N-methyl-N-propylimidazo[1,2-a]pyridine-2-carboxamide]
